{"source": "patent US20140297199A1", "about": "“DRUG SCREENING METHOD AND USES THEREOF” (COLD SPRING HARBOR LABORATORY, priority 2011, published 2014)", "key": {"[1]": {"tested_on": "c-fos-GFP expression in the whole mouse brain", "test": "c-fos-GFP pharmacomap by STP tomography, haloperidol vs saline (Example 5)", "assay_type": "in vivo", "conditions": "3 hours", "source_text": "This example analyzes the effects of antipsychotic drugs on neural circuit activity in the whole mouse brain. The method comprises the following steps: (1) an automated whole-brain microscopy, STP tomography, was used to image brains of c-fos-GFP mice, which express GFP as a marker for native c-fos; (2) the distribution of the activated c-fos-GFP-positive neurons was computationally detected by convolutional neural networks; (3) the processed datasets were warped and registered in a 3D reference brain and voxelized for statistical comparisons.\nTransgenic c-fos-GFP mice (Reijmers et al., Science 317:1230-1233 (2007)), expressing GFP as a surrogate marker for native c-fos, was injected with intraperitoneally with haloperidol (1 mg/kg) or saline (control). The mice were returned to their home cage and left undisturbed for 3 hours, a time period needed for the induction and fluorophore maturation of c-fos-GFP. Next, the mice were deeply anesthetized and euthanized by intra-cardiac perfusion with saline and paraformaldehyde for brain fixation. The mice were decapitated and the brain was extracted, postfixed and embedded in agar for STP tomography. Three PMTs (C1-C3) can be used for multi-color imaging. […]"}, "[2]": {"tested_on": "c-fos-GFP expression in the transgenic c-fos-GFP mouse brain", "test": "c-fos-GFP induction in transgenic c-fos-GFP mouse brain, whole-mount two-photon microscopy (Example 3)", "assay_type": "in vivo", "conditions": "three hours, vs saline, one animal per treatment", "source_text": "High-throughput whole-brain imaging of an immediate early gene (IEG) induction was used in transgenic “indicator” mice that express GFP from specific IEG promoters, such as c-fos and Arc promoters in c-fos-GFP and Arc-GFP transgenic mice ((Barth et al., J Neurosci 24, 6466-6475 (2004); Grinevich et al., Journal of Neuroscience Methods 184, 25-36 (2009)). In these mice, GFP represents a readily detectable surrogate for the expression of the native gene.\nWhole-mount two-photon microscopy was used for automated mouse brain imaging. The instrument works as follows: First, a fixed mouse brain embedded in an agar block is placed in a water bath on top of a computer controlled x-y-z stage. The stage moves the brain under the objective, so that the top is imaged as a mosaic of individual fields of view (“tiles”). […]\nTo validate the entire pipeline of data processing, the trained neural networks were applied to extract c-fos-GFP signal in brains of two mice, one injected with saline and the other with haloperidol at 1 mg/kg (FIG. 27). Three hours later, the mice were euthanized, their brains imaged by whole-mount two-photon microscopy, and c-fos-GFP-positive cells were computationally detected and visualized as a three-dimensional representation of intensity centroids (FIG. 17)."}, "[3]": {"tested_on": "c-fos-GFP expression in the mouse brain", "test": "c-fos-GFP pharmacomaps of three antipsychotics at a moderate dosage (Example 9)", "conditions": "5 mouse brains per drug"}, "[4]": {"tested_on": "c-fos-GFP expression in the mouse brain", "test": "Haloperidol dose-response c-fos-GFP pharmacomaps (Example 10)", "assay_type": "in vivo", "source_text": "For example, before injection, male mice (8 weeks old) are single-housed for five days in order to limit the variability of the baseline c-fos-GFP expression.\nFor example, the datasets are represented as the number of centroids (c-fos-GFP cells) lying within an evenly spaced grid of 450×650×300 elements (voxels), each of size 20×20×50 microns.\nDrugs have different effects and side effects at different dosages."}, "[5]": {"conditions": "haloperidol 0.25, risperidone 1.0, aripiprazole 1.0 mg/kg, vs saline-injected control"}}, "note": "Entries after “also recorded” stand apart in the source; their conditions may differ.", "data": [{"molecule": "O=C(CCCN1CCC(O)(c2ccc(Cl)cc2)CC1)c1ccc(F)cc1", "note": "[haloperidol]", "values": [{"measurement": "previously identified brain regions detected as statistically different vs saline", "setting": "[1]; 1 mg/kg i.p., n=7 vs saline n=7, negative binomial regressions, FDR 0.01", "result": "Medial prefrontal Cx, Cingulate Cx, Piriform Cx, Major Islands of Calleja, Nc Accumbens (whole, shell, core), Lateral septum, Striatum (whole), Medial preoptic area, Paraventricular nucleus, Bed nucleus of stria terminalis, Medial thalamus"}, {"measurement": "number of c-fos-GFP cells in the brain (c-fos-GFP pharmacomap)", "setting": "[1]; 1 mg/kg intraperitoneally, saline brain 176,771", "result": "545,838 c-fos-GFP cells"}, {"measurement": "c-fos-GFP-positive cells per coronal section, caudal sections", "setting": "[2]; 1 mg/kg, preliminary quantitation", "result": "increased numbers of c-fos-GFP-positive cells in many caudal coronal sections; also recorded: broad distribution of haloperidol-evoked c-fos-GFP induction in the caudal sections"}, {"measurement": "brain regions with c-fos-GFP induction", "setting": "[2]; i.p. 1 mg/kg", "result": "expected induction of c-fos-GFP in the striatum and lateral septum; also recorded: expected strong induction of c-fos-GFP in the caudate putamen; also recorded: Strong labeling is induced in striatum (A) and lateral septum (B)"}, {"measurement": "brain regions activated (pharmacomap)", "setting": "[3]; haloperidol 0.25 mg/kg, risperidone 1.0 mg/kg, aripiprazole 1.0 mg/kg, vs saline", "result": "activated a major portion of the caudate putamen (CP) and nucleus accumbens (ACB), as well as the olfactory tubercle (OT), prelimbic cortex (PL), lateral septum (LS) and dorsomedial hypothalamus (HYP)"}, {"measurement": "c-fos-GFP activation, Anterior cingulate cortex (ACAd)", "setting": "[3]; [5]", "result": "up"}, {"measurement": "c-fos-GFP activation, Anterior cingulate cortex (ACAv)", "setting": "[3]; [5]", "result": 0}, {"measurement": "c-fos-GFP activation, Basal, Central, Cortic. Amydgala (AMG)", "setting": "[3]; [5]", "result": 0}, {"measurement": "c-fos-GFP activation, Bed nucleus of Stria Terminalis (BST)", "setting": "[3]; [5]", "result": 0}, {"measurement": "c-fos-GFP activation, Caudate-putamen (CP, dorso-medial)", "setting": "[3]; [5]", "result": "up"}, {"measurement": "c-fos-GFP activation, Caudate-putamen (CP, ventro-medial)", "setting": "[3]; [5]", "result": "up"}, {"measurement": "c-fos-GFP activation, Caudoputamen (CP, dorsolateral)", "setting": "[3]; [5]", "result": "up"}, {"measurement": "c-fos-GFP activation, Caudoputamen (CP, ventrolateral)", "setting": "[3]; [5]", "result": "up"}, {"measurement": "c-fos-GFP activation, Central medial thalamic nucleus", "setting": "[3]; [5]", "result": 0}, {"measurement": "c-fos-GFP activation, Claustrum (CLA)", "setting": "[3]; [5]", "result": 0}, {"measurement": "c-fos-GFP activation, Dorsomedial hypoth. (HYP)", "setting": "[3]; [5]", "result": "up"}, {"measurement": "c-fos-GFP activation, Gostatory Cx (GU)", "setting": "[3]; [5]", "result": 0}, {"measurement": "c-fos-GFP activation, Hippocampus: CA1, CA2, CA3 (HF)", "setting": "[3]; [5]", "result": 0}, {"measurement": "c-fos-GFP activation, Hippocampus: DG", "setting": "[3]; [5]", "result": 0}, {"measurement": "c-fos-GFP activation, Hypothalamus, ventromedial nuclei", "setting": "[3]; [5]", "result": 0}, {"measurement": "c-fos-GFP activation, Infralimbic cortex (IL)", "setting": "[3]; [5]", "result": "up"}, {"measurement": "c-fos-GFP activation, Insular area, agranular", "setting": "[3]; [5]", "result": 0}, {"measurement": "c-fos-GFP activation, Lateral Septum (LS)", "setting": "[3]; [5]", "result": "up"}, {"measurement": "c-fos-GFP activation, Lateral Spetal Nucl, dorsal part", "setting": "[3]; [5]", "result": 0}, {"measurement": "c-fos-GFP activation, Midline Thalamus (Nucl Reuniens, RE)", "setting": "[3]; [5]", "result": 0}, {"measurement": "c-fos-GFP activation, Midline Thalamus (PVT)", "setting": "[3]; [5]", "result": 0}, {"measurement": "c-fos-GFP activation, Motor area, primary (MOp)", "setting": "[3]; [5]", "result": 0}, {"measurement": "c-fos-GFP activation, Motor area, secondary (MOs)", "setting": "[3]; [5]", "result": 0}, {"measurement": "c-fos-GFP activation, Nucleus Accumbens (ACB), core", "setting": "[3]; [5]", "result": "up"}, {"measurement": "c-fos-GFP activation, Nucleus Accumbens (ACB), shell", "setting": "[3]; [5]", "result": "up"}, {"measurement": "c-fos-GFP activation, Nucleus Accumbens (ACB), whole", "setting": "[3]; [5]", "result": "up"}, {"measurement": "c-fos-GFP activation, Olfactory tubercle (OT)", "setting": "[3]; [5]", "result": "up"}, {"measurement": "c-fos-GFP activation, Orbital cortex ventral (VO)", "setting": "[3]; [5]", "result": 0}, {"measurement": "c-fos-GFP activation, Orbital cx (ORB), lateral", "setting": "[3]; [5]", "result": 0}, {"measurement": "c-fos-GFP activation, Orbital cx (ORB), medial", "setting": "[3]; [5]", "result": "up"}, {"measurement": "c-fos-GFP activation, Piriform cx (PIR)", "setting": "[3]; [5]", "result": 0}, {"measurement": "c-fos-GFP activation, Prelimbic cx (PL)", "setting": "[3]; [5]", "result": "up"}, {"measurement": "c-fos-GFP activation, RSPd, v, d and agl", "setting": "[3]; [5]", "result": 0}, {"measurement": "c-fos-GFP activation, Red nucleus (RN)", "setting": "[3]; [5]", "result": 0}, {"measurement": "c-fos-GFP activation, Somatosensory cx, primary", "setting": "[3]; [5]", "result": 0}, {"measurement": "c-fos-GFP activation, Striatum, ventro-lateral", "setting": "[3]; [5]", "result": 0}, {"measurement": "c-fos-GFP activation, Superior Colliculus (SC)", "setting": "[3]; [5]", "result": 0}, {"measurement": "c-fos-GFP activation, Temporal cortex", "setting": "[3]; [5]", "result": 0}, {"measurement": "c-fos-GFP activation, Ventromedial Thalamus (caudally)", "setting": "[3]; [5]", "result": 0}, {"measurement": "c-fos-GFP activation, Zona Inserta", "setting": "[3]; [5]", "result": 0}, {"measurement": "brain regions activated (pharmacomap A)", "setting": "[4]; 0.05 mg/kg (low)", "result": "activated dorsomedial hypothalamus (HYP), ACB, and CP"}, {"measurement": "brain regions activated (pharmacomap B)", "setting": "[4]; 0.25 mg/kg (medium)", "result": "activated the same structures as shown in pharmacomap A, plus OT, LS and PL"}, {"measurement": "brain regions activated (pharmacomap C)", "setting": "[4]; 1.0 mg/kg (high)", "result": "more widespread activation, including, in addition, prelimbic (PL), infralimbic (IL), and lateral entorhinal (ENT) areas, BST, central amygdala (CEA) and PVT"}, {"measurement": "numbers of activated areas across dosages", "setting": "[4]; 0.05, 0.25 and 1.0 mg/kg", "result": "increasing numbers of activated areas observed with increasing dosage"}, {"measurement": "strength of c-Fos induction within commonly activated regions (caudate putamen and nucleus accumbens)", "setting": "[4]; 0.05, 0.25 and 1.0 mg/kg, data not shown", "result": "significantly increased with increasing dosage"}]}]}
